# Tests used:
# [1] = test system: histone H1 (glycation by ADP-ribose); assay: AGE-fluorescence screening of glycation inhibitors, histone H1 + ADP-ribose, 96 well microtiter plates; format: biochemical, calf; conditions: for AGE-fluorescence (day 5): 5 days incubation; for % inhibition: AGE-fluorescence day 5; for AGE-fluorescence (day 0): value (spread); for suppression of AGE-fluorescence, primary screen outcome: test compound 5 mM or limit of solubility, pH 7.4, 37° C.; for inhibition of AGE-fluorescence, in words: 1 to 10 mM, 5 days
# Description: A 96-well, microtiter plate was used to carry out 48 reactions in duplicate. […] A second pair of wells contains the reactants and the known glycation inhibitor aminoguanidine, and functions as a positive control. Histone H1 is commercially available, and can be prepared following the procedures set out in Johns, et al., Biochem J. 92:55-59(1964), which is incorporated by reference herein.
# The reaction system is 50 mM potassium phosphate buffer, at pH 7.4 to which 1.5 mg/ml histone H1 and 1.0 mM ADP-ribose were added. Reaction volume was 300 ul. AGE-fluorescence was measured over time, with incubation at 37° C., at 355 nm (ex) and 405 nm (em). Upon comparison to the control, a test compound was deemed potentially positive if AGE-fluorescence was suppressed.
# The histone H1 (1.5 mg/ml) was combined with 1 mM ADP-ribose, in […] KH2PO4 buffer (pH 7.4, 37° C., 0.015% NaN3 added, to inhibit microbial growth). This reaction mixture was added, to 96 well microtiter plates. Test compounds were added to the reaction mixture, at concentrations ranging from 1 to 10 mM, in reaction volumes of 300 ul. Texts were run in duplicate.
# Accumulated protein damage was determined by measuring AGE-fluorescence, at wavelengths (λex=370 nm; λ em=440 nm. The fluorescence is suppressed in the presence of compounds with inhibitory activity. Assays were read on a conventional microtiter plate, with a filter setting that approached the above conditions (λ ex: 355 nm, λ […]: 405 nm), which is in the range of the broad excitation/emission maxima of AGE compounds.
# The fluorescence was measured at the beginning, and after 5 days of incubation.
# The known glycation inhibitor aminoguanidine was used as a control.
# [2] = test system: histone H1 (carbonylation); assay: histone H1 carbonylation by reducing sugars, and interference by compounds; format: biochemical; conditions: for carbonylation of histone H1, in words / amount of carbonylation: 1 mM sugar, pH 7.4, 7 days
# Description: Both protein cross-linking and protein carbonylation are well established indicia of protein glycation. See Schacter, et al., Free Radic Biol Med. 17:429-437 (1994), incorporated by reference. In brief, following the assays described infra, formation of protein cross-linking was measured on 12% SDS-PAGE, followed by Coomassie and silver staining. Cross-linking was detectable with a high degree of sensitivity, when the reaction between ADP-ribose and histone H1 was carried out at pH 9.0. […] In FIG. 8, the abbreviations “M,” “D”, and “O” represent “monomer,” “dimer” and “oligomer,” respectively. Silver staining is the preferred way of determining the cross linking. Protein carbonlyation was determined via Western blotting. Specifically, AGE-BSA, which had been prepared by incubating BSA with 1.66M glucose, at pH 7.4 for 90 days at 37° C., was recognized after being derivatized with 2.4 dinitrophenlyhydrazine (“DNP”), when tested with antibodies specific for protein bound, DNP epitopes.
# A series of experiments were carried out to compare different reducing sugars as glycation agents. In addition to ADP-ribose, ADP-glucose, D-ribose and D-glucose were tested. Briefly, histone H1 was combined with 1 mM of each sugar, and the mixture was incubated at pH 7.4. After 7 days of incubation, reaction aliquots were analyzed on 12% SDS-PACE gels, with silver staining. Results are presented in FIGS. 19A and B. In each of these, lane 1 is a control, with no sugar added, while lanes 2-5 show results using D-glucose, D-ribose, ADP-glucose, and ADP-ribose, respectively. […] The amount of carbonylation caused by ADP-ribose (0.82 mole/mole histone H1), and D-ribose (0.06 mole/mole histone H1) correlated with immunostaining.
# In order to determine if the carbonylation of histone H1 by ADP-ribose involved an oxidative pathway, several compounds, known to interfere with glycoxidation of proteins by D-glucose were tested to determine if they interfered with this action by ADP-ribose. The compounds tested included 5 mM DTPA under argon, 5 mM aminoguanidine, 5 mM N^α acetyl L-cysteine, 5 mM mannitol, and 100 units/ml catalase.
# [3] = test system: He-Cat (human epidermal keratinocytes); assay: protection against α-dicarbonyl toxicity in keratinocytes, cell count; format: cell-based; conditions: 72 hours
# Description: (§1) Continuously cultured cell lines “He-Cat” (human epidermal keratinocytes), and “CF-3” (human dermal fibroblasts), were cultured under standard conditions, divided biweekly into DMEM containing 10% fetal bovine serum, and were kept in a humidified atmosphere containing 5% CO2 at 37° C. In order to divide the cells, 5% trypsin was used on the keratinocytes, and 1% trypsin was used on the fibroblasts.
# (§2) Keratinocytes were seeded at 2×10^4 cells/well, and fibroblasts at 4×10^4 cells/well, using 6 well dishes. The cells were allowed to attach to the plate overnight. Either D-penicillamine or aminoguanidine (1 mM each) was added to the plates 15 minutes prior to addition of glyoxal or methylglyoxal. The α-dicarbonyl was left for 72 hours. Varying concentrations of the α-dicarbonyl were used. Cells were counted with a Coulter counter after 72 hours of stress. Cultures were also run where the glyoxal or methylglyoxal was used without the scavenger. L-alanine was used as a negative control as it was not expected to have protective effect.
# [4] = test system: CF-3 (human dermal fibroblasts); assay: protection against α-dicarbonyl toxicity in fibroblasts, cell count; format: cell-based; conditions: 72 hours
# Description: as §1, §2
# [5] = compound 1 mM added 15 minutes prior to methylglyoxal
Compound,AGE-fluorescence (day 5) ([1]; compound 1 mM),% inhibition ([1]; compound 1 mM) [%],AGE-fluorescence (day 0) ([1]; compound 1 mM),AGE-fluorescence (day 5) ([1]; compound 5 mM),% inhibition ([1]; compound 5 mM) [%],AGE-fluorescence (day 0) ([1]; compound 5 mM),AGE-fluorescence (day 5) ([1]; compound 10 mM),% inhibition ([1]; compound 10 mM) [%],AGE-fluorescence (day 0) ([1]; compound 10 mM),further results
"N[C@@H](CS)C(=O)O [L-Cys, L-cysteine]",14 (0.3),36,1.2 (0.1),11 (0.2),50,1.1 (0.1),9.0 (0.2),61,1.2 (0.1),"suppression of AGE-fluorescence, primary screen outcome [1]: potential inhibitor"
C[N+](C)(C)[C@@H](Cc1c[nH]c(=S)[nH]1)C(=O)[O-] [L-Ergothioneine],13 (0.0),40,1.0 (0.1),9.3 (0.2),59,1.2 (0.0),7.4 (0.1),69,1.2 (0.1),"inhibition of AGE-fluorescence, in words [1]: somewhat better inhibition"
O=C[C@H](O)[C@@H](O)[C@H](O)[C@H](O)CO [D-glucose],–,–,–,–,–,–,–,–,–,"carbonylation of histone H1, in words [2]: Neither D-glucose nor ADP-glucose caused significant carbonylation"
"CC(=O)N[C@@H](CS)C(=O)O [NAC, N α-acetyl-L-cysteine, reference compound]",11 (0.6),51,1.2 (0.2),10 (0.4),55,1.0 (0.1),9.4 (0.6),58,1.1 (0.1),"% inhibition ([1]; compound 10 mM, listed as N α-acetyl-L-cysteine): 61%; interference with carbonylation of histone H1 by ADP-ribose ([2]; compound 5 mM): none of these interfered with the carbonylation"
CC(=O)C=O [methylglyoxal],–,–,–,–,–,–,–,–,–,concentration completely inhibitory to growth ([3]; no scavenger): 600 µM; concentration completely inhibitory to growth ([4]; no scavenger): 600 µM
NCCS [Cysteamine],10 (0.6),55,1.0 (0.1),9.0 (0.7),60,1.1 (0.1),6.0 (0.3),76,1.2 (0.2),"inhibition of AGE-fluorescence, in words [1]: somewhat better inhibition"
Nc1ncnc2c1ncn2[C@@H]1O[C@H](COP(=O)(O)OP(=O)(O)O[C@H]2O[C@H](CO)[C@@H](O)[C@H](O)[C@H]2O)[C@@H](O)[C@H]1O [ADP-glucose],–,–,–,–,–,–,–,–,–,"carbonylation of histone H1, in words [2]: Neither D-glucose nor ADP-glucose caused significant carbonylation"
NCCC(=O)O [beta-alanine],–,–,–,–,–,–,–,–,–,"suppression of AGE-fluorescence, primary screen outcome [1]: true negatives"
C[C@H](N)C(=O)O [L-alanine],–,–,–,–,–,–,–,–,–,"protection against methylglyoxal induced growth inhibition [3, 5]: no protective effect; protection against methylglyoxal induced growth inhibition [4, 5]: no protective effect"
"NC(CCS)C(=O)O (racemic) [D,L-Homocysteine]",16 (1.1),26,1.3 (0.0),22 (0.1),0,1.2 (0.2),27 (1.7),0,1.1 (0.1),"inhibition of AGE-fluorescence, in words [1]: increased AGE-fluorescence"
OC[C@@H](O)[C@@H](O)[C@H](O)[C@H](O)CO [mannitol],–,–,–,–,–,–,–,–,–,interference with carbonylation of histone H1 by ADP-ribose ([2]; compound 5 mM): none of these interfered with the carbonylation
O=C(O)CN(CCN(CC(=O)O)CC(=O)O)CCN(CC(=O)O)CC(=O)O [DTPA],–,–,–,–,–,–,–,–,–,interference with carbonylation of histone H1 by ADP-ribose ([2]; 5 mM under argon): none of these interfered with the carbonylation
O=C[C@H](O)[C@H](O)[C@H](O)CO [D-ribose],–,–,–,–,–,–,–,–,–,"amount of carbonylation [2]: 0.06 mole/mole histone H1; carbonylation of histone H1, in words [2]: a lesser amount"
"N[C@@H](CS)C(=O)NCC(=O)O [L-Cys-Gly, NH2-L-cys-gly-COOH]",17,20,1.3 (0.3),26 (0.4),0,1.2 (0.2),40 (0.0),0,1.2 (0.1),"inhibition of AGE-fluorescence, in words [1]: increased AGE-fluorescence"
catalase,–,–,–,–,–,–,–,–,–,interference with carbonylation of histone H1 by ADP-ribose ([2]; 100 units/ml): none of these interfered with the carbonylation
"N[C@@H](CCC(=O)N[C@@H](CS)C(=O)NCC(=O)O)C(=O)O [GSH, glutathione]",19 (0.3),10,1.3 (0.0),17 (0.3),20,1.1 (0.3),14 (0.5),35,1.1 (0.0),–
Nc1ncnc2c1ncn2[C@@H]1O[C@H](COP(=O)(O)OP(=O)(O)OC[C@H]2OC(O)[C@H](O)[C@@H]2O)[C@@H](O)[C@H]1O (stereo partly shown) [ADP-ribose],–,–,–,–,–,–,–,–,–,"amount of carbonylation [2]: 0.82 mole/mole histone H1; carbonylation of histone H1, in words [2]: extensive carbonylation"
"COC(=O)[C@@H](N)CS [L-Cys-OMe, L-cysteine methylester]",15 (0.1),31,1.2 (0.1),12 (0.8),46,1.3 (0.1),9.0 (0.2),61,1.2 (0.1),"suppression of AGE-fluorescence, primary screen outcome [1]: potential inhibitor"
O=C1CC(=O)NC(=S)N1 [2-Thiobarbituric acid],12 (0.4),45,1.1 (0.1),5.5 (0.4),78,1.2 (0.1),2.3 (0.0),95,1.3 (0.1),–

# From patent US6716635B2, “Method for identifying regulators of protein-advanced glycation end product (protein-AGE) formation” (University of Kentucky Research Foundation, priority 2000, dated 2004)
